Test results: patent US7772241B2, “Variolin derivatives and their use as antitumor agents” (Pharma Mar S.A., priority 2001, dated 2010)
Like-named read-outs stand apart in the source and are kept apart here.

Key:
[1] = system: IGROV-ET; experiment: Inhibition of cells growth by colorimetric (SRB) assay, IGROV-ET; conditions: for GI50 / CC50: Homo sapiens, 48 h; for GI50: read-out: IGROV-ET GI50, SRB assay, 48 hours exposure; for CC50: read-out: IGROV-ET LC50, SRB assay, 48 hours exposure; for IGROV-ET TGI: SRB assay, 48 hours exposure
Procedure, shortened: (§1)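 Human tumour cells seeded at 5×10^3/well in RPMI 1640 10% FBS, attached 18 h, then exposed 48 h to samples at 10 to 10^−8 μg/ml in DMSO/EtOH/PBS (0.5:0.5:99). Growth read by SRB staining after TCA fixation, OD 490 nm, triplicate wells; GI, TGI and LC derived.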

[2] = system: HeLa; experiment: Inhibition of cells growth by colorimetric (SRB) assay, HeLa; conditions: for GI50: Homo sapiens, HeLa, 48 h, read-out: HELA GI50, SRB assay, 48 hours exposure; for HELA TGI: SRB assay, 48 hours exposure
Excerpt: (§2) The finality of these assays is to interrupt the growth of a “in vitro” tumor cell culture by means a continued exhibition of the cells to the sample to be testing.
(§3) This form of the assay employs 96 well cell culture microplates of 9 mm diameter (Faircloth, 1988; Mosmann, 1983). Most of the cell lines are obtained from American Type Culture Collection (ATCC) derived from different human cancer types.
(§4) Cells are maintained in RPMI 1640 10% FBS, supplemented with 0.1 g/l penicillin and 0.1 g/l streptomycin sulphate and then incubated at 37° C., 5% CO2 and 98% humidity. For the experiments, cells were harvested from subconfluent cultures using trypsin and resuspended in fresh medium before plating.
(§5) Cells are seeded in 96 well microtiter plates, at 5×10^3 cells per well in aliquots of 195 μl medium, and they are allowed to attach to the plate surface by growing in drug free medium for 18 hours. Afterward, samples are added in aliquots of 5 μl in a ranging from 10 to 10^−8 μg/ml, dissolved in DMSO/EtOH/PBS (0.5:0.5:99). After 48 hours exposure, the antitumor effect are measured by the SRB methodology: cells are fixed by adding 50 μl of cold 50% (wt/vol) trichloroacetic acid (TCA) and incubating for 60 minutes at 4° C. Plates are washed with deionized water and dried. One hundred μl of SRB solution (0.4% wt/vol in 1% acetic acid) is added to each microtiter well and incubated for 10 minutes at room temperature. Unbound SRB is removed by washing with 1% acetic acid. Plates are air dried and bound stain is solubilized with Tris buffer. Optical densities are read on a automated spectrophotometric plate reader at a single wavelength of 490 nm.
(§6) The values for mean +/−SD of data from triplicate wells are calculated. Some parameters for cellular responses can be calculated: GI=growth inhibition, TGI=total growth inhibition (cytostatic effect) and LC=cell killing (cytotoxic effect).

[3] = system: IGROV-1; experiment: Inhibition of cells growth by colorimetric (SRB) assay, IGROV-1; conditions: for GI50 / CC50: Homo sapiens, IGROV-1, 48 h; for GI50: read-out: IGROV GI50, SRB assay, 48 hours exposure; for CC50: read-out: IGROV LC50, SRB assay, 48 hours exposure; for IGROV TGI: SRB assay, 48 hours exposure
Procedure, shortened: as §1

[4] = system: PANC-1; experiment: Inhibition of cells growth by colorimetric (SRB) assay, PANC-1; conditions: for GI50 / CC50: Homo sapiens, PANC-1, 48 h; for GI50: read-out: PANC-1 GI50, SRB assay, 48 hours exposure; for CC50: read-out: PANC-1 LC50, SRB assay, 48 hours exposure; for PANC-1 TGI: SRB assay, 48 hours exposure
Procedure, shortened: as §1

[5] = system: LoVo-Dox; experiment: Inhibition of cells growth by colorimetric (SRB) assay, LoVo-Dox; conditions: for GI50 / CC50: Homo sapiens, 48 h; for GI50: read-out: LOVO-DOX GI50, SRB assay, 48 hours exposure; for CC50: read-out: LOVO-DOX LC50, SRB assay, 48 hours exposure; for LOVO-DOX TGI: SRB assay, 48 hours exposure
Procedure, shortened: as §1

[6] = system: DU-145; experiment: Inhibition of cells growth by colorimetric (SRB) assay, DU-145; conditions: for GI50 / CC50: Homo sapiens, DU-145, 48 h; for GI50: read-out: DU-145 GI50, SRB assay, 48 hours exposure; for CC50: read-out: DU-145 LC50, SRB assay, 48 hours exposure; for DU-145 TGI: SRB assay, 48 hours exposure
Procedure, shortened: as §1

[7] = system: LoVo; experiment: Inhibition of cells growth by colorimetric (SRB) assay, LoVo; conditions: for GI50 / CC50: Homo sapiens, LoVo, 48 h; for GI50: read-out: LOVO GI50, SRB assay, 48 hours exposure; for CC50: read-out: LOVO LC50, SRB assay, 48 hours exposure; for LOVO TGI: SRB assay, 48 hours exposure
Procedure, shortened: as §1

[8] = system: HT-29; experiment: Inhibition of cells growth by colorimetric (SRB) assay, HT-29
Procedure, shortened: as §1

[9] = system: SK-BR-3; experiment: Inhibition of cells growth by colorimetric (SRB) assay, SK-BR-3; conditions: for GI50 / CC50: Homo sapiens, SK-BR-3, 48 h; for GI50: read-out: SK-BR-3 GI50, SRB assay, 48 hours exposure; for CC50: read-out: SK-BR-3 LC50, SRB assay, 48 hours exposure; for SK-BR-3 TGI: SRB assay, 48 hours exposure
Procedure, shortened: as §1

[10] = system: A-549; experiment: Inhibition of cells growth by colorimetric (SRB) assay, A-549
Procedure, shortened: as §1

[11] = system: HeLa-APL; experiment: Inhibition of cells growth by colorimetric (SRB) assay, HeLa-APL; conditions: for GI50 / CC50: Homo sapiens, 48 h; for GI50: read-out: HELA-APL GI50, SRB assay, 48 hours exposure; for CC50: read-out: HELA-APL LC50, SRB assay, 48 hours exposure; for HELA-APL TGI: SRB assay, 48 hours exposure
Excerpt: as §2, §3, §4, §5, §6

[12] = system: K-562; experiment: Inhibition of cells growth by colorimetric (SRB) assay, K-562; conditions: for GI50 / CC50: Homo sapiens, K562, 48 h; for GI50: read-out: K-562 GI50, SRB assay, 48 hours exposure; for CC50: read-out: K-562 LC50, SRB assay, 48 hours exposure; for K-562 TGI: SRB assay, 48 hours exposure
Procedure, shortened: as §1

[13] = system: SK-MEL-28; experiment: Inhibition of cells growth by colorimetric (SRB) assay, SK-MEL-28; conditions: for GI50 / CC50: Homo sapiens, SK-MEL-28, 48 h; for GI50: read-out: MEL-28 GI50, SRB assay, 48 hours exposure; for CC50: read-out: MEL-28 LC50, SRB assay, 48 hours exposure; for MEL-28 TGI: SRB assay, 48 hours exposure
Procedure, shortened: as §1

[14] = system: LNCaP; experiment: Inhibition of cells growth by colorimetric (SRB) assay, LNCaP; conditions: for GI50 / CC50: Homo sapiens, LNCaP, 48 h; for GI50: read-out: LN-caP GI50, SRB assay, 48 hours exposure; for CC50: read-out: LN-caP LC50, SRB assay, 48 hours exposure; for LN-caP TGI: SRB assay, 48 hours exposure
Procedure, shortened: as §1

[15] = Homo sapiens, HT-29, 48 h, read-out: HT-29 GI50, SRB assay, 48 hours exposure
[16] = Homo sapiens, HT-29, 48 h, read-out: HT-29 LC50, SRB assay, 48 hours exposure
[17] = Homo sapiens, A549, 48 h, read-out: A-549 GI50, SRB assay, 48 hours exposure
[18] = Homo sapiens, A549, 48 h, read-out: A-549 LC50, SRB assay, 48 hours exposure
[19] = Homo sapiens, A549, 48 h, read-out: GI50 A-549, SRB assay, 48 hours exposure

CSc1nccc(-c2c3cccnc3n3c(NC(C)=O)nccc23)n1 [Compound 69]
GI50 [1]: 7.31 µM
CC50 [1]: 28.5 µM
IGROV-ET TGI [1]: 2.18E−05
GI50 [2]: 0.00716 µM
HELA TGI [2]: 3.60E−08
GI50 [3]: 2.13 µM
CC50 [3]: 28.5 µM
IGROV TGI [3]: 8.53E−06
GI50 [4]: 4.99 µM
CC50 [4]: 28.5 µM
PANC-1 TGI [4]: 1.91E−05
GI50 [5]: 2.04 µM
CC50 [5]: 28.5 µM
LOVO-DOX TGI [5]: 9.79E−06
GI50 [6]: 0.985 µM
CC50 [6]: 23.7 µM
DU-145 TGI [6]: 4.59E−06
GI50 [7]: 1.22 µM
CC50 [7]: 28.5 µM
LOVO TGI [7]: 7.28E−06
GI50 ([8]; Homo sapiens, HT-29, 48 h, read-out: GI50 HT-29, SRB assay, 48 hours exposure): 14.3 µM
GI50 [8, 15]: 0.887 µM
CC50 [8, 16]: 28.5 µM
CC50 ([8]; Homo sapiens, HT-29, 48 h, read-out: LC50 HT-29, SRB assay, 48 hours exposure): 28.6 µM
HT-29 TGI ([8]; SRB assay, 48 hours exposure): 6.51E−06
TGI HT-29 ([8]; SRB assay, 48 hours exposure): 2.86E−05
GI50 [9]: 1.23 µM
CC50 [9]: 24.8 µM
SK-BR-3 TGI [9]: 6.25E−06
GI50 [10, 17]: 0.517 µM
CC50 [10, 18]: 2.75 µM
GI50 [10, 19]: 5.71 µM
CC50 ([10]; Homo sapiens, A549, 48 h, read-out: LC50 A-549, SRB assay, 48 hours exposure): 28.6 µM
A-549 TGI ([10]; SRB assay, 48 hours exposure): 1.19E−06
TGI A-549 ([10]; SRB assay, 48 hours exposure): 2.29E−05
GI50 [11]: 0.00594 µM
CC50 [11]: 0.38 µM
HELA-APL TGI [11]: 2.45E−08
GI50 [12]: 12.8 µM
CC50 [12]: 28.5 µM
K-562 TGI [12]: 2.85E−05
GI50 [13]: 2.19 µM
CC50 [13]: 16.4 µM
MEL-28 TGI [13]: 6.51E−06
GI50 [14]: 1.08 µM
CC50 [14]: 28.5 µM
LN-caP TGI [14]: 4.77E−06

CSc1nccc(-c2c3ccc(C)nc3n3c(N)nccc23)n1 [Compound 43]
GI50 [1]: 3.69 µM
CC50 [1]: ≥ 31 µM
IGROV-ET TGI [1]: 1.87E−05
GI50 [2]: 0.0233 µM
HELA TGI [2]: 2.03E−07
GI50 [3]: 6.64 µM
CC50 [3]: ≥ 31 µM
IGROV TGI [3]: 1.60E−05
GI50 [4]: 5.71 µM
CC50 [4]: ≥ 31 µM
PANC-1 TGI [4]: 1.65E−05
GI50 [5]: 1.22 µM
CC50 [5]: ≥ 31 µM
LOVO-DOX TGI [5]: 5.24E−06
GI50 [6]: 1.68 µM
CC50 [6]: 24.5 µM
DU-145 TGI [6]: 6.79E−06
GI50 [7]: 0.717 µM
CC50 [7]: ≥ 31 µM
LOVO TGI [7]: 2.37E−06
GI50 [8, 15]: 0.932 µM
CC50 [8, 16]: 31.1 µM
GI50 ([8]; read-out: HT-29 GI50, SRB assay, 48 hours exposure): 1.13 µM
CC50 ([8]; read-out: HT-29 LC50, SRB assay, 48 hours exposure): ≥ 31 µM
GI50 [9]: 1.24 µM
CC50 [9]: ≥ 31 µM
SK-BR-3 TGI [9]: 5.27E−06
GI50 [10, 17]: 0.937 µM
CC50 [10, 18]: 31.1 µM
GI50 [10, 19]: 2.17 µM
CC50 ([10]; read-out: A-549 LC50, SRB assay, 48 hours exposure): ≥ 17.3 µM
GI50 [11]: 0.0182 µM
CC50 [11]: 7.88 µM
HELA-APL TGI [11]: 1.75E−07
GI50 [12]: 5.27 µM
CC50 [12]: 21.2 µM
K-562 TGI [12]: 1.06E−05
GI50 [13]: 0.85 µM
CC50 [13]: 15.3 µM
MEL-28 TGI [13]: 3.72E−06
GI50 [14]: 1.36 µM
CC50 [14]: 12.5 µM
LN-caP TGI [14]: 3.94E−06

CSc1nccc(-c2c3c(Cl)ccnc3n3c(N)nccc23)n1.Cl [Compound 108]
GI50 [1]: 11.3 µM
CC50 [1]: 26.4 µM
IGROV-ET TGI [1]: 2.64E−05
GI50 [2]: 0.00751 µM
HELA TGI [2]: 1.15E−07
GI50 [3]: 2.33 µM
CC50 [3]: 26.4 µM
IGROV TGI [3]: 2.64E−05
GI50 [4]: 3.37 µM
CC50 [4]: 26.4 µM
PANC-1 TGI [4]: 2.64E−05
GI50 [5]: 0.68 µM
CC50 [5]: 26.4 µM
LOVO-DOX TGI [5]: 1.61E−06
GI50 [6]: 1.5 µM
CC50 [6]: 26.4 µM
DU-145 TGI [6]: 2.64E−05
GI50 [7]: 0.208 µM
CC50 [7]: 4.85 µM
LOVO TGI [7]: 7.57E−07
GI50 [8, 15]: 0.701 µM
CC50 [8, 16]: 26.4 µM
HT-29 TGI ([8]; SRB assay, 48 hours exposure): 2.64E−05
GI50 [9]: 5.62 µM
CC50 [9]: 26.4 µM
SK-BR-3 TGI [9]: 1.60E−05
GI50 [10, 17]: 2.02 µM
CC50 [10, 18]: 26.4 µM
A-549 TGI ([10]; SRB assay, 48 hours exposure): 2.16E−05
GI50 [11]: 0.00954 µM
CC50 [11]: 26.4 µM
HELA-APL TGI [11]: 2.04E−07
GI50 [13]: 0.925 µM
CC50 [13]: 26.4 µM
MEL-28 TGI [13]: 2.64E−05
